Test results from paper PMC7721897, “Metabolism and pharmacokinetics of a novel polyphenol fatty acid ester phloridzin docosahexaenoate in Balb/c female mice” (Scientific Reports, 2020).
Where two headings read alike, the source gives them in different places.

How the values were obtained:
4T1 breast cancer cells = tested on: 4T1 breast cancer cells; design: method as in PMID 31473253; conditions: intraperitoneal, 100 mg/kg every 2 days for 10 days; cited from earlier work
[1] = Tissue distribution of PZ-DHA and metabolites after intraperitoneal injection; assay type: in vivo, Balb/c female mice; conditions: female, Balb/c, mouse, intraperitoneal, 100 mg/kg
Procedure: Figure 5 PZ-DHA and metabolites were detected in various organs of PZ-DHA-treated Balb/c female mice. PZ-DHA (100 mg/kg) was administered by intraperitoneal injection to Balb/c female mice and liver, lungs, kidneys, spleen and brain were harvested. Organs were homogenized and PZ-DHA in (A) liver, kidneys, lungs, spleen, and brain was identified and quantified using a calibration curve. The abundance of (B) 4,4′,6′-tri-O-methyl-phloridzin docosahexaenoate in liver, kidneys, lungs, and serum) and (C) phloridzin docosahexaenoate-4,4′-di-O-sulphide in the liver was determined in PZ-DHA equivalence.
Pharmacokinetic parameters and in vivo generation of PZ-DHA metabolites were studied using Balb/c female mice. Mice were randomly divided into six groups (n = 4/group) and PZ-DHA (100 mg/kg) was administered by intraperitoneal injection. For each mouse, a single blood collection was performed by cardiac puncture at one of six different time points (t = 15, 30, 60, 90, 120, and 240 min). At the end of blood collection, mice were euthanized by cervical dislocation and organs (liver, lungs, kidneys, spleen, and brain) were harvested. Blood samples were allowed to clot by leaving undisturbed at room temperature for 1 h, and serum was separated by centrifuging at 2000×g for 10 min at 4 °C. The serum was carefully removed and stored on ice until further processing. Serum proteins were precipitated by incubating an aliquot of serum with a mixture of acetonitrile:acetone (80:20) containing 0.1 mg/mL quercetin (internal standard) at 4 °C overnight. The supernatant was separated by centrifuging at 14,000×g for 10 min at 4 °C. Excess solvent was evaporated using nitrogen flush and mixed with methanol and filtered. PZ-DHA-metabolites in the filtrate were identified using a UPLC-ESI–MS/MS (Waters Limited, Mississauga, ON, Canada). Organs were homogenized in PBS (1:5 w/v). Supernatants were collected by centrifugation at 14,000 × g for 15 min at 4 °C. Proteins were precipitated by incubating in acetonitrile:acetone (80:20) containing 0.1 mg/mL quercetin (internal standard) at 4 °C overnight. Supernatants were treated as explained above, and PZ-DHA and/or PZ-DHA-metabolites were identified.

[2] = brain/serum, read-out: Tissue/serum ratio of PZ-DHA (Mean ± SD) Brain/serum
[3] = kidneys/serum, read-out: Tissue/serum ratio of PZ-DHA (Mean ± SD) Kidneys/serum
[4] = liver/serum, read-out: Tissue/serum ratio of PZ-DHA (Mean ± SD) Liver/serum
[5] = lungs/serum, read-out: Tissue/serum ratio of PZ-DHA (Mean ± SD) Lungs/serum
[6] = spleen/serum, read-out: Tissue/serum ratio of PZ-DHA (Mean ± SD) Spleen/serum

CC/C=C\C/C=C\C/C=C\C/C=C\C/C=C\C/C=C\CCC(=O)OC[C@H]1O[C@@H](Oc2cc(O)cc(O)c2C(=O)CCc2ccc(O)cc2)[C@H](O)[C@@H](O)[C@@H]1O [PZ-DHA, phloridzin docosahexaenoate]
tumor growth and metastasis of 4T1 breast cancer cells (4T1 breast cancer cells): inhibits tumor growth and metastasis
Kp at 15 min [1, 2]: 0.51 ± 0.17
Kp at 30 min [1, 2]: 0.64 ± 0.11
Kp at 60 min [1, 2]: 0.95 ± 0.68
Kp at 90 min [1, 2]: 1.01 ± 0.19
Kp at 120 min [1, 2]: 1.31 ± 0.67
Kp at 240 min [1, 2]: 1.94 ± 0.75
Kp at 15 min [1, 3]: 0.66 ± 0.03
Kp at 30 min [1, 3]: 1.29 ± 0.22
Kp at 60 min [1, 3]: 0.81 ± 0.34
Kp at 90 min [1, 3]: 0.89 ± 0.26
Kp at 120 min [1, 3]: 2.71 ± 1.41
Kp at 240 min [1, 3]: 2.71 ± 1.08
Kp at 15 min [1, 4]: 0.14 ± 0.06
Kp at 30 min [1, 4]: 0.16 ± 0.08
Kp at 60 min [1, 4]: 4.68 ± 2.02
Kp at 90 min [1, 4]: 2.69 ± 2.17
Kp at 120 min [1, 4]: 1.03 ± 0.73
Kp at 240 min [1, 4]: 0.99 ± 0.23
Kp at 15 min [1, 5]: 3.33 ± 1.51
Kp at 30 min [1, 5]: 2.04 ± 1.09
Kp at 60 min [1, 5]: 1.05 ± 0.014
Kp at 90 min [1, 5]: 3.51 ± 2.44
Kp at 120 min [1, 5]: 3.82 ± 1.74
Kp at 240 min [1, 5]: 4.97 ± 1.37
Kp at 15 min [1, 6]: 3.29 ± 1.56
Kp at 30 min [1, 6]: 3.17 ± 0.72
Kp at 60 min [1, 6]: 4.18 ± 1.01
Kp at 90 min [1, 6]: 5.24 ± 1.75
Kp at 120 min [1, 6]: 10.9 ± 8.42
Kp at 240 min [1, 6]: 16.1 ± 5.98
